Patent US8946438B2, “Benzamides, production thereof, and use thereof as medicaments” (Boehringer Ingelheim International GmbH, priority 2008, dated 2015)

target: p38 MAP-kinase (Homo sapiens, UniProt Q16539); assay: Enzymatic assay: inhibition of p38 MAP-kinase (phosphorylation of GST-tagged ATF2, chemoluminescence bead readout); assay type: biochemical; settings: inhibitor 1 μM; activated p38 MAP-kinase 1 nM; 4 h preincubation; ATP 100 μM; ATF2 10 nM; read-out: % inhibitory effect at 1 μM
Outline: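 Activated human p38 MAP-kinase (1 nM) preincubated 4 h at ambient temperature with compound at 1 μM in HEPES pH 7, MgCl2, DTT, Tween20. Then reacted 1 h with GST-ATF2 (10 nM) and ATP (100 μM). Phospho-ATF2 read by bead chemoluminescence at 520-620 nm, given as % inhibition at 1 μM versus kinase-free background.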

p38 MAP-kinase, sequence (Q16539 whole entry): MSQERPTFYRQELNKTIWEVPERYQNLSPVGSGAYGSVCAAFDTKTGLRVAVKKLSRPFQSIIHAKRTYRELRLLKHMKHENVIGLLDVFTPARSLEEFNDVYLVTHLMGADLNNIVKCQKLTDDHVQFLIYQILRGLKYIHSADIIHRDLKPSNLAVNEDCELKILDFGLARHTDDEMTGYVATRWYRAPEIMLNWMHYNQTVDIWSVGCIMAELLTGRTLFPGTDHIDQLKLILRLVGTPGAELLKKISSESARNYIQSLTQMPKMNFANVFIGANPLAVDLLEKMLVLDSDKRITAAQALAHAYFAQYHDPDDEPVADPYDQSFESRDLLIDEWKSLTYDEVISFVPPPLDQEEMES

| inhibition at 1 µM | Compound |
| --- | --- |
| 95.4% | CCCCC(=O)Nc1cc(C(C)(C)C)cc(NC(=O)c2ccc(C)c(Oc3ccnc(CC4CCNCC4)c3)c2)c1OC [11(2), N-(5-tert-butyl-2-methoxy-3-pentanoylamino-phenyl)-4-methyl-3-(2-piperidin-4-ylmethyl-pyridin-4-yloxy)-benzamide] |
| 98.6% | COc1c(NC(=O)c2ccc(C)c(Oc3ccnc(CC4CCNCC4)c3)c2)cc(C(C)(C)C)cc1NC(=O)C1CC1 [5(43), N-[5-tert-butyl-3-(cyclopropanecarbonyl-amino)-2-methoxy-phenyl]-4-methyl-3-(2-piperidin-4-ylmethyl-pyridin-4-yloxy)-benzamide] |
| 98.9% | COc1c(NC(=O)c2ccc(C)c(Oc3ccnc(CN4CCN(C)CC4)c3)c2)cc(C(C)(C)C)cc1NS(C)(=O)=O [8(10), N-(5-tert-butyl-3-methanesulphonylamino-2-methoxy-phenyl)-4-methyl-3-[2-(4-methyl-piperazin-1-ylmethyl)-pyridin-4-yloxy]-benzamide] |
| 97.7% | COc1c(NC(=O)c2ccc(C)c(Oc3ccnc(CN(C)CCN(C)C)c3)c2)cc(C(C)(C)C)cc1NS(C)(=O)=O [8(26), N-(5-tert-butyl-3-methanesulphonylamino-2-methoxy-phenyl)-3-(2-{[(2-dimethylamino-ethyl)-methyl-amino]-methyl}-pyridin-4-yloxy)-4-methyl-benzamide] |
| 99.6% | COc1c(NC(=O)c2ccc(C)c(Oc3ccnc(CC4CCNCC4)c3)c2)cc(C(F)(F)C(F)(F)F)cc1NS(C)(=O)=O [5(55), N-(3-methanesulphonylamino-2-methoxy-5-pentafluoroethyl-phenyl)-4-methyl-3-(2-piperidin-4-ylmethyl-pyridin-4-yloxy)-benzamide] |
| 99.6% | COc1c(CS(C)(=O)=O)cc(C(C)(C)C)cc1NC(=O)c1ccc(C)c(Oc2ccnc(CC3CCNCC3)c2)c1 [5(41), N-(5-tert-butyl-3-methanesulphonylmethyl-2-methoxy-phenyl)-4-methyl-3-(2-piperidin-4-ylmethyl-pyridin-4-yloxy)-benzamide] |
| 99.6% | COc1c(NC(=O)c2ccc(Cl)c(Oc3ccnc(CC4CCN(C)CC4)n3)c2)cc(C(C)(C)C)cc1NS(C)(=O)=O [12(3), N-(5-tert-butyl-3-methanesulphonylamino-2-methoxy-phenyl)-4-chloro-3-[2-(1-methyl-piperidin-4-ylmethyl)-pyrimidin-4-yloxy]-benzamide] |
| 98.5% | COc1c(NC(=O)c2ccc(C)c(Oc3ccnc(CN4CCNCC4)c3)c2)cc(C(C)(C)C)cc1NS(C)(=O)=O [5(9), N-(5-tert-butyl-3-methanesulphonylamino-2-methoxy-phenyl)-4-methyl-3-(2-piperazin-1-ylmethyl-pyridin-4-yloxy)-benzamide x trifluoroacetic acid] |
| 99.6% | COc1c(NC(=O)c2ccc(C)c(Oc3ccnc(CC4CCNCC4)c3)c2)cc(C(C)(C)C)cc1NS(=O)(=O)C(C)C [5(50), N-[5-tert-butyl-2-methoxy-3-(propane-2-sulphonylamino)-phenyl]-4-methyl-3-(2-piperidin-4-ylmethyl-pyridin-4-yloxy)-benzamide] |
| 94.1% | COc1c(NC(=O)c2ccc(C)c(Oc3cc(CN4CCNC(=O)C4)ncn3)c2)cc(C(C)(C)C)cc1NS(C)(=O)=O [8(7), N-(5-tert-butyl-3-methanesulphonylamino-2-methoxy-phenyl)-4-methyl-3-[6-(3-oxo-piperazin-1-ylmethyl)-pyrimidin-4-yloxy]-benzamide] |
| 89% | COc1c(NC(=O)c2ccc(C)c(Oc3cc(CNCCN(C)C)ncn3)c2)cc(C(C)(C)C)cc1NS(C)(=O)=O [8(29), N-(5-tert-butyl-3-methanesulphonylamino-2-methoxy-phenyl)-3-{6-[(2-dimethylamino-ethylamino)-methyl]-pyrimidin-4-yloxy}-4-methyl-benzamide] |
